Data taken from patent US8501953B2, “PKM2 modulators for use in the treatment of cancer” (Agios Pharmaceuticals, Inc, priority 2009, dated 2013).

Molecular target: PKM2 (Homo sapiens, UniProt P14618)
Assay: PKM2 Assay (activation; LDH-coupled, NADH absorbance at 340 nm)
Format: biochemical
Details: PKM2 50 ng/well, ADP 0.7 mM, PEP 0.15 mM, no FBP in Reaction Mix
Method: • PKM2 stock enzyme solution was diluted in Reaction Buffer • 2 μL of compound was added into each well first, and then 180 μL of the Reaction Mix was added. • Reaction mixture with compound (without ADP) were incubated for 30 minutes at 4° C. • Plates were re-equilibrated to room temperature prior to adding 20 μL ADP to initiate the reaction. • Reaction progress was measured as changes in absorbance at 340 nm wavelength at room temperature (25° C.) Reaction Mix: PKM2 (50 ng/well), ADP (0.7 mM), PEP (0.15 mM), NADH (180 μM), LDH (2 units) in Reaction Buffer Reaction Buffer: 100 mM KCl, 50 mM Tris pH 7.5, 5 mM MgCl2, 1 mM DTT, 0.03% BSA.

Sequence of PKM2 (P14618 whole entry): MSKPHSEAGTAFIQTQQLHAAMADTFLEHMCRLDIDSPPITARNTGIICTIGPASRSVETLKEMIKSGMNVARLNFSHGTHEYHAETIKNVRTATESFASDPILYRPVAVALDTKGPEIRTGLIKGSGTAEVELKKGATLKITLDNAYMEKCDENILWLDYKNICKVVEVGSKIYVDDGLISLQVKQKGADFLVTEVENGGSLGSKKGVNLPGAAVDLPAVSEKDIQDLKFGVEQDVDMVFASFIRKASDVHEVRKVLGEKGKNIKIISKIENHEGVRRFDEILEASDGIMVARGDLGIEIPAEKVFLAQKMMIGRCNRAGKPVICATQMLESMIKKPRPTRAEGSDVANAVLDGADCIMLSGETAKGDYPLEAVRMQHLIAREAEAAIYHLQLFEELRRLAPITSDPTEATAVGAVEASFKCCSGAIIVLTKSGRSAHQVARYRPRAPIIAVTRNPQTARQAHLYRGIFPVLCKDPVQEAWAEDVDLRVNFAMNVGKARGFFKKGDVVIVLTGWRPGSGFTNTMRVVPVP

Row | Structure (SMILES) | AC50 [µM]
1 | COc1ccc(Cl)cc1S(=O)(=O)Nc1ccc2c(c1)sc(=O)n2C | 10 to 50
2 | O=c1[nH]c2cc(NS(=O)(=O)c3cccc(Cl)c3)c(Cl)cc2o1 | 10 to 50
3 | COc1ccc(Cl)cc1S(=O)(=O)Nc1ccc2oc(=O)[nH]c2c1 | 10 to 50
4 | COc1ccc(C)cc1S(=O)(=O)Nc1ccc2oc(=O)[nH]c2c1 | 10 to 50
5 | O=c1sc2ccc(S(=O)(=O)Nc3ccc(F)cc3)cc2s1 | 10 to 50
6 | Cc1cc2sc(=O)sc2cc1S(=O)(=O)Nc1ccccc1 | < 1
7 | Cc1cc2sc(=O)sc2cc1S(=O)(=O)Nc1ncc(C(F)(F)F)cc1Cl | 1 to 10
8 | O=c1sc2ccc(S(=O)(=O)Nc3ccc(Cl)cc3)cc2s1 | 1 to 10
9 | Cc1cc2sc(=O)sc2cc1S(=O)(=O)NC1CCCCC1 | 10 to 50
10 | COc1ccc(Cl)cc1NS(=O)(=O)c1ccc2sc(=O)sc2c1 | 10 to 50
11 | Cn1c(=O)sc2ccc(NS(=O)(=O)c3c(F)cccc3F)cc21 | 1 to 10
12 | Cc1cc2sc(=O)sc2cc1S(=O)(=O)Nc1ccc(F)cc1 | 1 to 10
13 | O=c1[nH]c2cc(NS(=O)(=O)c3c(F)cccc3F)ccc2s1 | 10 to 50
14 | O=c1[nH]c2cc(NS(=O)(=O)c3ccccc3)ccc2s1 | 10 to 50
15 | COc1ccc(Cl)cc1NS(=O)(=O)c1cc2sc(=O)sc2cc1C | 1 to 10
16 | CCn1c(=O)sc2ccc(NS(=O)(=O)c3cc(Cl)ccc3OC)cc21 | 1 to 10
17 | Cc1cc2sc(=O)sc2cc1S(=O)(=O)Nc1ccc(Cl)cc1 | 1 to 10
18 | COc1ccc(Cl)cc1S(=O)(=O)Nc1ccc2sc(=O)[nH]c2c1 | 1 to 10
19 | COc1cccc(F)c1S(=O)(=O)N(C)c1ccc2sc(=O)n(C)c2c1 | 10 to 50
20 | CCC(C)n1c(=O)sc2ccc(NS(=O)(=O)c3cc(Cl)ccc3OC)cc21 (centres unmarked) | 1 to 10
21 | CCn1c(=O)sc2ccc(NS(=O)(=O)c3c(F)cccc3F)cc21 | 1 to 10
22 | Cn1c(=O)sc2ccc(NS(=O)(=O)c3ccccc3)cc21 | 10 to 50
23 | CCn1c(=O)sc2ccc(NS(=O)(=O)c3cc(C)ccc3OC)cc21 | 1 to 10

Row | Structure (SMILES) | AC50 [µM]
24 | Cn1c(=O)sc2cc(NS(=O)(=O)c3ccc(F)cc3)ccc21 | 10 to 50
25 | O=c1[nH]c2cc(NS(=O)(=O)c3cccc(Cl)c3)ccc2s1 | 10 to 50
26 | COc1ccc(Cl)cc1S(=O)(=O)N1CCCN(S(=O)(=O)c2ccc3c(c2)sc(=O)n3C)CC1 | < 1
27 | Cn1c(=O)sc2cc(S(=O)(=O)N3CCCN(S(=O)(=O)c4c(F)cccc4F)CC3)ccc21 | 1 to 10
28 | COc1ccc(Cl)cc1S(=O)(=O)N1CCN(S(=O)(=O)c2ccc3c(c2)sc(=O)n3C)CC1 | 1 to 10
29 | Cn1c(=O)sc2cc(S(=O)(=O)N3CCN(S(=O)(=O)c4c(F)cccc4F)CC3)ccc21 | < 1
30 | Cn1c(=O)sc2cc(S(=O)(=O)N3CCN(S(=O)(=O)c4ccccc4)CC3)ccc21 | 1 to 10
31 | COc1ccc(S(=O)(=O)N2CCN(S(=O)(=O)c3ccc4c(c3)sc(=O)n4C)CC2)cc1 | < 1
32 | COc1ccc(S(=O)(=O)N2CCCN(S(=O)(=O)c3ccc4c(c3)sc(=O)n4C)CC2)cc1 | 1 to 10
33 | Cn1c(=O)sc2cc(S(=O)(=O)N3CCCN(S(=O)(=O)c4ccccc4)CC3)ccc21 | 1 to 10
34 | Cc1cc(C)cc(NS(=O)(=O)c2cc3sc(=O)n(C)c3cc2Cl)c1 | < 1
35 | Cn1c(=O)sc2cc(S(=O)(=O)Nc3cccc4ccccc34)ccc21 | 1 to 10
36 | Cn1c(=O)sc2cc(S(=O)(=O)Nc3ccc4ccccc4c3)ccc21 | < 1
37 | Cn1c(=O)sc2cc(S(=O)(=O)Nc3cccc4ncccc34)ccc21 | 1 to 10
38 | Cn1c(=O)sc2cc(S(=O)(=O)Nc3ccc4ncccc4c3)ccc21 | 1 to 10
39 | Cn1c(=O)sc2cc(S(=O)(=O)Nc3ccc(F)c(Cl)c3)ccc21 | < 1
40 | O=c1oc2cc(S(=O)(=O)Nc3ccc(Cl)cc3)ccc2n1Cc1ccccc1 | 1 to 10
41 | O=c1oc2cc(S(=O)(=O)Nc3ccc(F)cc3)ccc2n1CCc1ccccc1 | 1 to 10
42 | O=c1oc2cc(S(=O)(=O)Nc3ccc(F)cc3)ccc2n1Cc1ccccc1 | 1 to 10
43 | COc1ccc(Cl)cc1S(=O)(=O)N1CCN(S(=O)(=O)c2ccc3c(c2)oc(=O)n3C)CC1 | 1 to 10
44 | Cn1c(=O)oc2cc(S(=O)(=O)N3CCN(S(=O)(=O)c4c(F)cccc4F)CC3)ccc21 | 1 to 10
45 | Cn1c(=O)oc2cc(S(=O)(=O)N3CCN(S(=O)(=O)c4ccc5ccccc5c4)CC3)ccc21 | < 1
46 | Cc1cc(C)cc(NS(=O)(=O)c2ccc3c(c2)oc(=O)n3Cc2ccccc2)c1 | 1 to 10

Now from value to compound:

Row | AC50 [µM] | Structure (SMILES)
47 | 10 to 50 | CCn1c(=O)oc2cc(S(=O)(=O)Nc3ccc(F)cc3)c(C)cc21
48 | > 100 | CCn1c(=O)oc2ccc(NS(=O)(=O)c3cccs3)cc21
49 | 1 to 10 | Cc1cc2c(cc1S(=O)(=O)Nc1ccc(F)cc1)oc(=O)n2C
50 | 1 to 10 | COc1ccc(Cl)cc1S(=O)(=O)Nc1cc2c(cc1Cl)oc(=O)n2C
51 | 1 to 10 | CCn1c(=O)oc2cc(S(=O)(=O)Nc3ccccc3Cl)c(C)cc21
52 | 1 to 10 | CCn1c(=O)oc2cc(S(=O)(=O)Nc3ccccc3Cl)ccc21
53 | 1 to 10 | Cn1c(=O)oc2cc(Cl)c(S(=O)(=O)Nc3ccc(F)cc3)cc21
54 | 10 to 50 | CC(=O)c1ccc(S(=O)(=O)Nc2cc3c(cc2C)oc(=O)n3C)cc1
55 | 10 to 50 | CCn1c(=O)oc2cc(C)c(S(=O)(=O)Nc3cc(Cl)ccc3OC)cc21
56 | 10 to 50 | Cn1c(=O)oc2cc(Cl)c(NS(=O)(=O)c3cccc(Cl)c3)cc21
57 | 10 to 50 | CCn1c(=O)oc2cc(Cl)c(S(=O)(=O)Nc3ccc(F)cc3)cc21
58 | 10 to 50 | Cc1cc2oc(=O)n(C)c2cc1NS(=O)(=O)c1ccc(F)cc1
59 | 1 to 10 | COc1ccc(Cl)cc1NS(=O)(=O)c1cc2c(cc1C)oc(=O)n2C
60 | > 100 | Cc1cc2oc(=O)n(C)c2cc1S(=O)(=O)Nc1c(F)cccc1F
61 | 10 to 50 | COc1ccc(C)cc1S(=O)(=O)Nc1cc2[nH]c(=O)oc2cc1C
62 | < 1 | Cc1cc(C)cc(NS(=O)(=O)c2cc3c(cc2Cl)oc(=O)n3C)c1
63 | 10 to 50 | CCn1c(=O)oc2cc(C)c(NS(=O)(=O)c3cc(Cl)ccc3OC)cc21
64 | < 1 | Cc1cc2oc(=O)n(C)c2cc1S(=O)(=O)Nc1ccc(Cl)cc1
65 | > 100 | Cn1c(=O)oc2cc(F)c(NS(=O)(=O)c3cccs3)cc21
66 | 1 to 10 | CCn1c(=O)oc2cc(Cl)c(S(=O)(=O)Nc3ccc(Cl)cc3)cc21

Row | AC50 [µM] | Structure (SMILES)
67 | 1 to 10 | Cn1c(=O)oc2cc(F)c(S(=O)(=O)Nc3ccc(Cl)cc3)cc21
68 | 1 to 10 | Cc1cc2oc(=O)n(C)c2cc1NS(=O)(=O)c1ccccc1C
69 | 10 to 50 | CCn1c(=O)oc2cc(C)c(S(=O)(=O)Nc3ccccc3Cl)cc21
70 | 1 to 10 | COc1ccc(C)cc1S(=O)(=O)Nc1cc2c(cc1Cl)oc(=O)n2C
71 | 1 to 10 | Cc1cc2oc(=O)n(C)c2cc1S(=O)(=O)Nc1ccccc1F
72 | 10 to 50 | Cc1cc2oc(=O)n(C)c2cc1NS(=O)(=O)c1cccc(Cl)c1
73 | 1 to 10 | COc1ccc(Cl)cc1NS(=O)(=O)c1cc2c(cc1Cl)oc(=O)n2C
74 | 10 to 50 | Cn1c(=O)oc2cc(Cl)c(S(=O)(=O)Nc3ccc(Cl)cc3)cc21
75 | > 100 | Cn1c(=O)oc2cc(F)c(NS(=O)(=O)c3c(F)cccc3F)cc21
76 | 10 to 50 | Cc1cc2oc(=O)n(C)c2cc1NS(=O)(=O)c1cc(Cl)ccc1Cl
77 | 10 to 50 | Cc1cc2sc(=O)sc2cc1S(=O)(=O)Nc1ccccc1F
78 | 10 to 50 | CCn1c(=O)sc2ccc(NS(=O)(=O)c3cccs3)cc21
79 | 1 to 10 | Cc1cc2sc(=O)sc2cc1S(=O)(=O)Nc1ccccc1Cl
80 | 10 to 50 | Cc1cc2oc(=O)sc2cc1NS(=O)(=O)c1cccs1
81 | 1 to 10 | COc1ccc(C)cc1S(=O)(=O)Nc1ccc2sc(=O)n(C)c2c1
82 | 10 to 50 | COc1ccc(Cl)cc1S(=O)(=O)Nc1ccc2sc(=O)n(C)c2c1
83 | 10 to 50 | Cc1cc2c(cc1NS(=O)(=O)c1cccs1)oc(=O)n2C
84 | 10 to 50 | O=c1[nH]c2cc(NS(=O)(=O)c3cccs3)ccc2s1
85 | 10 to 50 | Cn1c(=O)sc2ccc(NS(=O)(=O)c3cccs3)cc21
86 | < 1 | Cc1cc(C)cc(NS(=O)(=O)c2ccc3c(c2)sc(=O)n3C)c1

Row | AC50 [µM] | Structure (SMILES)
87 | < 1 | Cn1c(=O)sc2cc(S(=O)(=O)Nc3cccc(Cl)c3)ccc21
88 | < 1 | Cc1cc(NS(=O)(=O)c2ccc3c(c2)sc(=O)n3C)ccc1F
89 | 1 to 10 | Cn1c(=O)oc2cc(S(=O)(=O)Nc3ccccc3Cl)ccc21
90 | 1 to 10 | COc1ccc(Cl)cc1NS(=O)(=O)c1cc2oc(=O)n(C)c2cc1C
91 | 1 to 10 | Cc1cc2c(cc1S(=O)(=O)N1CCCN(c3ccc(C(F)(F)F)cn3)CC1)oc(=O)n2C
92 | 1 to 10 | Cc1cc2c(cc1S(=O)(=O)N1CCN(c3ccc(C(F)(F)F)cn3)CC1)oc(=O)n2C
93 | 1 to 10 | CN(Cc1ccccc1)S(=O)(=O)c1ccc2c(c1)oc(=O)n2C
94 | 1 to 10 | Cc1cc2c(cc1S(=O)(=O)N1CCN(Cc3ccccc3)CC1)oc(=O)n2C
95 | > 100 | Cn1c(=O)oc2cc(S(=O)(=O)NC(C)(C)C)ccc21
96 | 10 to 50 | Cn1c(=O)oc2cc(S(=O)(=O)Nc3ccccn3)ccc21
97 | < 1 | Cc1cc(C)cc(NS(=O)(=O)c2cc3oc(=O)n(C)c3cc2C)c1
98 | 1 to 10 | Cn1c(=O)oc2cc(S(=O)(=O)Nc3ccc(Cl)cc3)ccc21
99 | 1 to 10 | Cn1c(=O)oc2cc(S(=O)(=O)Nc3ccc4c(c3)OCCO4)ccc21
100 | 1 to 10 | Cn1c(=O)oc2cc(S(=O)(=O)Nc3ccccc3)ccc21
101 | < 1 | Cc1cc(C)cc(NS(=O)(=O)c2cc3oc(=O)n(C)c3cc2F)c1
102 | 1 to 10 | Cc1cc(C)cc(NS(=O)(=O)c2ccc3c(c2)oc(=O)n3CCc2ccccc2)c1
103 | 1 to 10 | Cn1c(=O)oc2cc(S(=O)(=O)Nc3cc(F)cc(F)c3)ccc21
104 | 1 to 10 | Cn1c(=O)oc2cc(S(=O)(=O)Nc3ccc(Cl)c(F)c3)ccc21
